The values below come from ChEMBL document CHEMBL1177695, “Discovery and development of natural product-derived chemotherapeutic agents based on a medicinal chemistry approach” (J Nat Prod, 2010).

In brackets after ≈: the same amount, converted by molar mass.

A short description of data set [1]: Antitumor activity against rat Walker 256 cells allografted in rat at 2.5 mg/kg relative to control. Format: functional.
The test system of data set [2] is Human immunodeficiency virus 1. The experiment in a line: Antiviral activity against HIV1 NL4-3. Format: functional, organism-based. The note with it: Human immunodeficiency virus 1, NL4-3.
Data set [3] deals with Human immunodeficiency virus 1. Briefly: Antiviral activity against HIV1 PI-R. It is filed as functional, organism-based. To be noted: Human immunodeficiency virus 1, PI-R.
A further data set has as its system Hep-2 (human). Briefly: Cytotoxicity against human Hep-2 cells. To be noted: read-out: ED50 (the source's name).
Data set [4] is described as follows: Inhibition of tubulin polymerization.
In data set [5] the test system is KB. The experiment in a line: Cytotoxicity against human KB cells. Format: functional, cell-based.
Data set [6] can be described thus: Cytotoxicity against human KB-7d cells expressing multidrug-resistant protein. To be noted: KB7D. It is filed as functional, cell-based.
Data set [7] can be described thus: Cytotoxicity against vincristine-resistant human KB/VCR cells overexpressing P-glycoprotein. It is filed as functional, cell-based.
The test system of data set [8] is KB. The experiment in a line: Cytotoxicity against CPT-resistant human KB cells […] reduced level of topoisomerase. Format: functional, cell-based.
Data set [9] concerns MCF7. Briefly: Cytotoxicity against human MCF7 cells after 72 hrs by MTT assay. Format: functional, cell-based. To be noted: MCF7, 72 h. In general terms: Tetrazolium assays rely on reduction of a dye to a coloured formazan, in cell work by metabolically active cells.
Data set [10] relates to MDA-MB-231. Briefly: Cytotoxicity against human MDA-MB-231 cells after 72 hrs by MTT assay. Format: functional, cell-based. The note with it: MDA-MB-231, 72 h.
The nature of data set [11]: Cytotoxicity against human Hep3B cells after 72 hrs by MTT assay. Format: functional, cell-based, Hep 3B2.
A further data set has as its system P388. Briefly: Antitumor activity against mouse P388 cells allografted in mouse at 8 mg/kg relative to control. It is filed as functional.
Data set [12] is described as follows: Cytotoxicity against human KBVIN cells after 3 days by sulforhodamine B assay. It is filed as functional, cell-based. To be noted: 72 h. For orientation: The SRB assay estimates cell density from bound dye.
Data set [13] concerns KB. The experiment in a line: Selectivity ratio of EC50 for human KB cells to EC50 for vincristine-resistant human KB cells. It is filed as functional.
Data set [14] has as its system MCF7. Briefly: Cytotoxicity against human MCF7 cells. The note with it: read-out: ED50 (the source's name). It is filed as functional.
For data set [15], the system named is ZR-75-1. Briefly: Cytotoxicity against human ZR-75-1 cells. It is filed as functional. To be noted: read-out: ED50 (the source's name).
In data set [16] the test system is SK-BR-3. The experiment in a line: Cytotoxicity against human SK-BR-3 cells overexpressing HER2. Format: functional. To be noted: read-out: ED50 (the source's name).
The subject of data set [17] is MCF7. Briefly: Cytotoxicity against human MCF7 cells after 72 hrs by sulforhodamine B assay. Format: functional. To be noted: MCF7, 72 h, read-out: ED50 (the source's name).
The subject of data set [18] is SK-BR-3. The experiment in a line: Cytotoxicity against human SK-BR-3 cells after 72 hrs by sulforhodamine B assay. It is filed as functional. The note with it: SK-BR-3, 72 h, read-out: ED50 (the source's name).
Data set [19] concerns ZR-75-1. Briefly: Cytotoxicity against human ZR-75-1 cells after 72 hrs by sulforhodamine B assay. It is filed as functional. The note with it: ZR-75-1, 72 h, read-out: ED50 (the source's name).
The subject of data set [20] is MDA-MB-231. The experiment in a line: Cytotoxicity against human MDA-MB-231 cells after 72 hrs by sulforhodamine B assay. Format: functional. To be noted: MDA-MB-231, 72 h, read-out: ED50 (the source's name).
The test system of a further data set is PC-3. Briefly: Cytotoxicity against human PC3 cells after 2 days. Format: functional, cell-based. The note with it: PC-3, 48 h.
Another data set concerns LNCaP. The experiment in a line: Cytotoxicity against human LNCAP cells after 2 days. It is filed as functional, cell-based. The note with it: 48 h.
Another data set relates to Pseudomonas fluorescens. The experiment in a line: Antibacterial activity against Pseudomonas fluorescens. It is filed as functional.
The subject of a further data set is Staphylococcus aureus. The experiment in a line: Antibacterial activity against Staphylococcus aureus. It is filed as functional.
For the next data set, the system named is Aspergillus niger. The experiment in a line: Antifungal activity against Aspergillus niger. Format: functional.
The next data set concerns Aureobasidium pullulans. The experiment in a line: Antifungal activity against Aureobasidium pullulans. Format: functional.
Another data set relates to Pseudomonas aeruginosa. Briefly: Antibacterial activity against Pseudomonas aeruginosa. Format: functional.
In a further data set the test system is Escherichia coli. The experiment in a line: Antibacterial activity against Escherichia coli. It is filed as functional.
For data set [21], the system named is Human immunodeficiency virus 1. Briefly: Antiviral activity against HIV1 3B infected in H9 cells assessed as inhibition of viral replication by p24 antigen ELISA. Format: functional, organism-based. To be noted: Human immunodeficiency virus 1, 3B, H9; read-out: EC50. A general note: ELISA stands for enzyme-linked immunosorbent assay.
Data set [22] can be described thus: Therapeutic index, ratio of IC50 for human H9 cells to EC50 for HIV 3B. It is filed as cell-based. The note with it: read-out: TI.
The nature of data set [23]: Oral bioavailability in rat. It is filed as ADME, organism-based. The note with it: in vivo.

Regarding `C=C(C)C(=O)O[C@H]1C/C(C)=C\[C@@]2(OCC)C=C(C)[C@H](O2)[C@H]2OC(=O)C(=C)[C@@H]21` [PHANTOMOLIN], the T/C in data set [1] came out at 378%.
As for `CC(C)C[C@@H](NC(=O)[C@]12CCC(C)(C)C=C1[C@H]1CC[C@@H]3[C@@]4(C)CC[C@H](OC(=O)CC(C)(C)C(=O)O)C(C)(C)[C@@H]4CC[C@@]3(C)[C@]1(C)CC2)C(=O)O`, the EC50 turned out to be 8.5 nM in data set [2] and 21 nM in [3].
As for `C=C1C(=O)O[C@@H]2C[C@@H](C)[C@@H]3CCC(=O)[C@@]3(C)[C@@H](O)[C@H]12`, the EC50 in the data set on Hep-2 (human) amounted to 3.84 µg/mL (≈ 14.5 µM).
As to `COc1ccc2c(c1)C(=O)CCc1cc(OC)c(OC)c(OC)c1-2`, the IC50 in [4] was determined as 1000 nM. Besides, the EC50 was 0.057 µg/mL (≈ 0.174 µM) in the data set on KB [5], 0.025 µg/mL (≈ 0.0761 µM) in [6], > 0.063 µg/mL in [7] and 0.052 µg/mL (≈ 0.158 µM) in the data set on KB [8].
Take `O=C1C=CC(O)(c2cc(=O)c3c(ccc4ccccc43)o2)C=C1`: the values for the IC50 (in the data set with MCF7 [9]; in the data set on MDA-MB-231 [10]; in data set [11]) were 0.66 µg/mL (≈ 2.17 µM), 0.39 µg/mL (≈ 1.28 µM) and 0.3 µg/mL (≈ 0.986 µM), respectively.
Consider `COc1ccc2c(c1)c(=O)ccc1cc(OC)c(OC)c(OC)c12`, for which, in data set [4], the IC50 came to 1000 nM. The EC50 was determined as 0.029 µg/mL (≈ 0.0889 µM) in the data set with KB [5], 0.024 µg/mL (≈ 0.0735 µM) in data set [6], 0.016 µg/mL (≈ 0.049 µM) in data set [7] and 0.042 µg/mL (≈ 0.129 µM) in the data set on KB [8].
In the case of `C=C1C(=O)O[C@@H]2C[C@@H](C)[C@@H]3C=CC(=O)[C@@]3(C)[C@@H](O)[C@H]12` [HELENALIN], the T/C in data set [1] came out at 316%; in the data set on P388, 162%. Further, the EC50 in the data set on Hep-2 (human) was determined as 0.08 µg/mL (≈ 0.305 µM).
Compound `CCC1=C(O)c2c(oc(-c3ccc(C)cc3)cc2=O)C(CC)(CC)C1=O` [6,8,8-TRIETHYL-4-METHYL DESMOSDUMOTIN B] registered an EC50 in [12] of 0.03 µg/mL (≈ 0.0851 µM). In addition, the “Ratio EC50” value with KB [13] is reported as >460.
For `CCc1cccc2c1ccc1c3occ(C)c3c(=O)oc21`, the EC50 amounted to 0.45 µg/mL (≈ 1.62 µM) in the data set on MCF7 [14], 0.18 µg/mL (≈ 0.647 µM) with ZR-75-1 [15] and 0.1 µg/mL (≈ 0.359 µM) with SK-BR-3 [16].
For `CCCc1cccc2c1ccc1c3occ(C)c3c(=O)oc21`, the EC50 in the data set with MCF7 [17] was 1.2 µg/mL (≈ 4.1 µM); with SK-BR-3 [18], 0.1 µg/mL (≈ 0.342 µM); in the data set on ZR-75-1 [19] it was 0.3 µg/mL (≈ 1.03 µM); with MDA-MB-231 [20], > 10 µg/mL.
For `CCOC(=O)/C=C/C(C(=O)/C=C/c1ccc(OC)c(OC)c1)=C(O)\C=C\c1ccc(OC)c(OC)c1`, the values for the IC50 with PC-3 and in the data set with LNCaP were 1000 nM and 200 nM, respectively.
As for `COc1ccc2c(c1)C(O)CCc1cc(OC)c(OC)c(OC)c1-2` (stereo unspecified), in [4], the IC50 was determined as 2000 nM. The EC50 in the data set on KB [5] amounted to 0.02 µg/mL (≈ 0.0605 µM); in data set [6], 0.013 µg/mL (≈ 0.0393 µM); in data set [7], 0.013 µg/mL (≈ 0.0393 µM); with KB [8] it was 0.022 µg/mL (≈ 0.0666 µM).
With `C=C1C(=O)O[C@H]2[C@H]1[C@@H](OC(=O)/C(C)=C/C)C/C(C)=C/C(=O)/C=C(/C)[C@@H]2O` [MOLEPHANTININ], the T/C in data set [1] is 397%.
For the compound `O=C1c2ccccc2C(=O)c2c(NCC3CO3)ccc(NCC3CO3)c21` (stereo unspecified), the MIC with Pseudomonas fluorescens came out at 0.13 µg/mL (≈ 0.371 µM); in the data set with Staphylococcus aureus, 0.13 µg/mL (≈ 0.371 µM); with Aspergillus niger, 0.13 µg/mL (≈ 0.371 µM); with Aureobasidium pullulans it was 0.13 µg/mL (≈ 0.371 µM); in the data set with Pseudomonas aeruginosa it was 63 µg/mL (≈ 180 µM); against Escherichia coli, 250 µg/mL (≈ 714 µM).
Take `Cc1c(CO)c(=O)oc2c3c(ccc12)OC(C)(C)[C@H](OC(=O)C12CCC(C)(C(=O)O1)C2(C)C)[C@@H]3OC(=O)C12CCC(C)(C(=O)O1)C2(C)C` (stereo partly specified): the EC50 in data set [21] worked out at 4.2 nM. In data set [22], the selectivity ratio is 6000. In addition, the bioavailability in [23] was 15%.

What is called T/C is the ratio of treated to control. For orientation: IC50 means the concentration needed to halve the response being measured. The MIC is the lowest concentration found to suppress growth. Read a low MIC as inhibition by little substance. The term bioavailability denotes the share of a dose that reaches the circulation, judged against a reference dose that is usually intravenous. A higher bioavailability goes with much systemic uptake.
